Drawing on patent publication US20110152313A1 (MACQUARIE UNIVERSITY, priority 2008, published 2011), this text covers Kd, remaining activity and IC50 for three compounds.

Bounds are passed on as bounds.

In one test the target is DYRK1A (Homo sapiens, UniProt Q13627). Nature of the test: kinase binding constant, 11-point dose response (T7 phage, qPCR). The following applies: >30 = no inhibition at highest concentration tested. Here is the method:
Kinase inhibition studies were performed by methods well known in the prior art (Fabian, M. A. et al. Nat. Biotechnol. 2005, 23, 329). Briefly, kinase-tagged T7 phage strains were prepared in an E. coli host derived from the BL21 strain. E. coli were grown to log-phase and infected with T7 phage and incubated with shaking at 32° C. until lysis. The lysates were centrifuged and filtered to remove cell debris. […] The liganded beads were blocked with excess biotin and washed with blocking buffer (SeaBlock (Pierce); 1% BSA, 0.05% Tween 20, 1 mM DTT) to remove unbound ligand and to reduce non-specific binding. […] All reactions were performed in polystyrene 96-well plates in a final volume of 0.135 ml. […] The kinase concentration in the eluates was measured by qPCR.
An 11-point 3-fold serial dilution of each test compound (from 30 μM to 0.5 nM) was prepared in 100% DMSO at 100× final test concentration and subsequently diluted to 1× in the assay (final DMSO concentration=1%). Binding constants (KDS) were calculated with a standard dose-response curve using a 5-point sigmoidal (Hill) equation.

For the next test, the target named is CAMK2A (Homo sapiens, UniProt Q9UQM7). Put plainly: kinase binding screen (kinase-tagged T7 phage, qPCR), % Ctrl. The method in brief: (§1)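 Kinase-tagged T7 phage lysates were prepared in E. coli (MOI 0.4, 32° C until lysis), then exposed to ligand-bearing beads and test compound at a fixed concentration. Kinase remaining bound was eluted and measured by qPCR.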

The target of a further test is T1, DYRK2 (Homo sapiens, UniProt Q92630).
T1 sequence (Q92630 1-601): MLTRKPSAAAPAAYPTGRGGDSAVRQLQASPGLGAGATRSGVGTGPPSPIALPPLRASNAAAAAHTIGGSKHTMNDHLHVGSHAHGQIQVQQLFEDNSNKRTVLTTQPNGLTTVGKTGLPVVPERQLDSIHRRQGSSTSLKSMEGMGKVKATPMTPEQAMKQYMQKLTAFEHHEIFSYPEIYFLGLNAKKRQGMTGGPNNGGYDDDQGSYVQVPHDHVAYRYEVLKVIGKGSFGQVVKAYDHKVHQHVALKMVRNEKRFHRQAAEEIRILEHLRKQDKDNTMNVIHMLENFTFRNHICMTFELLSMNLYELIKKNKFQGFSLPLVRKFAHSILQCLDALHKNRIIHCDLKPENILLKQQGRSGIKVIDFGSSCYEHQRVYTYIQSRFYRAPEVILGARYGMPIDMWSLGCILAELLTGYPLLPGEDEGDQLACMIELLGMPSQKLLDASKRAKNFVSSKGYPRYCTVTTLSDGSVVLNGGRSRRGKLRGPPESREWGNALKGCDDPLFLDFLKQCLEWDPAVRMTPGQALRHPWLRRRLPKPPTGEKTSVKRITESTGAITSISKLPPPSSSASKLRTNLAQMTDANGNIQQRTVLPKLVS
Described as above. Summed up:
as §1

In a further test the target is T2, ZAP70 (Homo sapiens, UniProt P43403).
T2 sequence (P43403 1-619): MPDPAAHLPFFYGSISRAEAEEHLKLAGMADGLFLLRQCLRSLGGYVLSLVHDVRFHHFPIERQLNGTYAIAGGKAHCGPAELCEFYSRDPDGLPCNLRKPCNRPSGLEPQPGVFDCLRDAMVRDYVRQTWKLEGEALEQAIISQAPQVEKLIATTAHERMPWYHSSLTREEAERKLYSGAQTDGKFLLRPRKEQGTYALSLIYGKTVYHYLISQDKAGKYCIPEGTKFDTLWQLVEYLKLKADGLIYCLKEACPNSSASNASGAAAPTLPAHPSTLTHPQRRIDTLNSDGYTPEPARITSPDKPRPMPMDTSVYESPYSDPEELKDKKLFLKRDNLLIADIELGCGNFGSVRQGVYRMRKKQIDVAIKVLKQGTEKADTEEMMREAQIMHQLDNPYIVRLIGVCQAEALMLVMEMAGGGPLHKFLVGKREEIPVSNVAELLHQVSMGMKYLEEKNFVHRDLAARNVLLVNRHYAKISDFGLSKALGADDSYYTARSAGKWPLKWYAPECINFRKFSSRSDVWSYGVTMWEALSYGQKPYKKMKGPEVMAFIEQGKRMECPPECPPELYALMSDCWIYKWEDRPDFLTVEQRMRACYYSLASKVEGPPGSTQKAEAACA
Described as above. The method in brief:
as §1

The next test concerns the target T3, CDK5/p25 (Homo sapiens, UniProt Q00535).
T3 construct: made in house
Put plainly: protein kinase activity assay ([γ-32P] ATP, histone H1). The following applies: 15 μM ATP, 30° C.; tested up to 100 μM; read-out: IC50 CDK5/p25. It is filed as biochemical. Here is the method:
Buffer A: 10 mM MgCl2, 1 mM EGTA, 1 mM DTT, 25 mM Tris-HCl pH 7.5, 50 μg heparin/mL. Buffer C: 60 mM β-glycerophosphate, 15 mM p-nitrophenylphosphate, 25 mM Mops (pH 7.2), 5 mM EGTA, 15 mM MgCl2, 1 mM DTT, 1 mM sodium vanadate, 1 mM phenyl phosphate.
Anticancer activity is commonly associated with the inhibition of kinase enzymes. […] Blank values are subtracted and activities expressed as percent of the maximal activity, i.e. in the absence of inhibitors (Table 4). Controls were performed with appropriate dilutions of DMSO, which was used to dissolve all test compounds.
CDK1/cyclin B (native M phase starfish oocytes), and CDK5/p25 (recombinant human) can be prepared according to the prior art (Meijer, L.; Thunnissen, A. M. W. H.; White, A. W.; Gamier, M.; Nikolic, M., et al. Chem. Biol. 2000, 7, 51-63). […] ATP (3,000 Ci/mmol, 10 mCi/mL) in a final volume of 30 μL. After 30 min. incubation at 30° C., 25 μL aliquots of supernatant are spotted onto 2.5×3 cm pieces of Whatman P81 phosphocellulose paper and, 20 s later, the filters are washed five times (for at least 5 min. each time) in a solution of 10 mL phosphoric acid/L of water. The wet filters are then counted in the presence of 1 mL ACS (Amersham) scintillation fluid.

Chain of CAMK2A (Q9UQM7 whole entry): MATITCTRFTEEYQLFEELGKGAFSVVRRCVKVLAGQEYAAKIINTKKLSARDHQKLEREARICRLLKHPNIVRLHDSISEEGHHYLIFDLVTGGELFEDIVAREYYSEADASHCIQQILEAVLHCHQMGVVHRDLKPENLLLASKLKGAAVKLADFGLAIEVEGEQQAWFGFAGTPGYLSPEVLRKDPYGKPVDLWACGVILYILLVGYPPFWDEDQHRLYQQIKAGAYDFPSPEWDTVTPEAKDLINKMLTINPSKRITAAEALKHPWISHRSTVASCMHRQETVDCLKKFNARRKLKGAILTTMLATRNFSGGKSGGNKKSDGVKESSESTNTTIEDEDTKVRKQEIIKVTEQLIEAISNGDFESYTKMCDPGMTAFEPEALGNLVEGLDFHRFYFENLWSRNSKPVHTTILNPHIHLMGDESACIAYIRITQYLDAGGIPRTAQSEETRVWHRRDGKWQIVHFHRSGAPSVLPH
T3 sequence (Q00535 whole entry): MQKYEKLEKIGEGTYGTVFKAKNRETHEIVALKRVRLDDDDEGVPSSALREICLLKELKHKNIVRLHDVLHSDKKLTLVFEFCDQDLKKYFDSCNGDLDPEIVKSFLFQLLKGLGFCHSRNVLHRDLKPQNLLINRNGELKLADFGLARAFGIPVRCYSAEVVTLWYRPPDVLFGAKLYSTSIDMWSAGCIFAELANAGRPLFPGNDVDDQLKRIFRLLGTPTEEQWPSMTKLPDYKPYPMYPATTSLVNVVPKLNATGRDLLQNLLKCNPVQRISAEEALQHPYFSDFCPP
T3 sequence (Q15078 99-307 partner limits assumed): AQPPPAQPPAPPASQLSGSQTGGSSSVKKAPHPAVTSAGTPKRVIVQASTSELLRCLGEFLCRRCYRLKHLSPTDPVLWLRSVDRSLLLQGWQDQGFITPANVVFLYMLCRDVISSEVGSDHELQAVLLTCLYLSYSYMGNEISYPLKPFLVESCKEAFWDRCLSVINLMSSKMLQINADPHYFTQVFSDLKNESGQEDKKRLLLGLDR

In the case of `Nc1nc2c(-c3ccccn3)nccc2[nH]1` [drawing 35, 4-(pyrid-2-yl)-1H-imidazo[4,5-c]pyridin-2-amine], the Kd (as a rule, the equilibrium constant for the complex coming apart) at DYRK1A came to 290 nM. Further, the figures for the remaining activity at 1 µM on CAMK2A, on DYRK2 and on ZAP70 were 100%, 41% and 54%, respectively.

`Nc1nc2c(-c3cc(Br)c(Br)[nH]3)nccc2[nH]1` [Ageladine A, ageladine A, reference compound]: the remaining activity (commonly what remains of the control signal, in per cent) at 1 µM at CAMK2A was found to be 100%; at DYRK2, 35%; on ZAP70, 81%. In addition, the values for the remaining activity at 10 µM on CAMK2A (10 μM), on DYRK2 (10 μM) and at ZAP70 (10 μM) were 97%, 4.4% and 65%, respectively. Further, at CDK5/p25, the IC50 was above 100000 nM.

On DYRK1A, `Nc1nc2c(-c3cnc4ccccc4c3)nccc2[nH]1` [drawing 36, 4-(quinolin-3-yl)-1H-imidazo[4,5-c]pyridin-2-amine] yielded a Kd of 300 nM. Also, the remaining activity at 1 µM came out at 100% at CAMK2A, 56% on DYRK2 and 94% at ZAP70.
